Activity calls are given as the source filed them. No rule for the calls is given here.
Tested on: rodent carcinogenicity bioassays, tumor incidence
Assay: CCRIS carcinogenicity studies
In short: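 Archive of carcinogenicity, mutagenicity, tumor promotion and tumor inhibition results drawn from journals, NCI reports and other sources, expert-reviewed; covers 1985-2011 and is no longer updated.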

CCCNN
carcinogen call (Species: MOUSE, Strain/Sex: SWISS/FEMALE, Route: ORAL, Dose: 0, 0.025% SOLUTION IN DRINKING WATER DAILY FOR LIFE FOR AND AVERAGE DAILY INTAKE OF 0, 3.0 MG (STUDY DURATION: 100 WK), Dose: 0, 0.025% SOLUTION IN DRINKING WATER DAILY FOR LIFE FOR AND AVERAGE DAILY INTAKE OF 0, 3.0 MG (STUDY DURATION: 100 WK), Tumor Site: Type of Lesion: LUNG: ADENOMA, LUNG: ADENOMA OR ADENOCARCINOMA): active; positive | carcinogen call (Species: MOUSE, Strain/Sex: SWISS/MALE, Route: ORAL, Dose: 0, 0.025% SOLUTION IN DRINKING WATER DAILY FOR LIFE FOR AN AVERAGE DAILY INTAKE OF 0, 2.9 MG (STUDY DURATION: 100 WK), Dose: 0, 0.025% SOLUTION IN DRINKING WATER DAILY FOR LIFE FOR AN AVERAGE DAILY INTAKE OF 0, 2.9 MG (STUDY DURATION: 100 WK), Tumor Site: Type of Lesion: LUNG: ADENOMA, LUNG: ADENOMA OR ADENOCARCINOMA): active; positive

O=[N+]([O-])C1=Cc2cccc3cccc(c23)O1
carcinogen call (Species: RAT, Strain/Sex: WISTAR/MALE, Route: SUBCUTANEOUS, Dose: 0, 0.5 MG IN DMSO 1/WK FOR DURATION OF STUDY (TOTAL DOSE: 0; 19.5 MG) (STUDY DURATION: 271 D), Dose: 0, 0.5 MG IN DMSO 1/WK FOR DURATION OF STUDY (TOTAL DOSE: 0; 19.5 MG) (STUDY DURATION: 271 D), Tumor Site: Type of Lesion: INJECTION SITE: FIBROSARCOMA): active; positive

CCO
carcinogen call (Species: MOUSE, Strain/Sex: B6C3F1/FEMALE (48/GROUP), Route: ORAL, Dose: 2.5% OR 5% IN DRINKING WATER (STUDY DURATION: 2 YRS)): inactive; negative; inadequate study to determine carcinogenic activity | carcinogen call (Species: MOUSE, Strain/Sex: B6C3F1/MALE (48/GROUP), Route: ORAL, Dose: 2.5% OR 5% IN DRINKING WATER (STUDY DURATION: 2 YRS), Tumor Site: Type of Lesion: LIVER: HEPATOCELLULAR ADENOMA OR CARCINOMA (COMBINED)): active; positive; inadequate study to determine carcinogenic activity | carcinogen call (Species: RAT, Strain/Sex: SPRAGUE-DAWLEY/FEMALE, Route: ORAL, Dose: 0, 1, 3% IN LIQUID DIET FOR 104 WK (STUDY DURATION: 120 WK), Dose: 0, 1, 3% IN LIQUID DIET FOR 104 WK (STUDY DURATION: 120 WK)): inactive; negative | carcinogen call (Species: RAT, Strain/Sex: SPRAGUE-DAWLEY/MALE, Route: ORAL, Dose: 0, 1, 3% IN LIQUID DIET FOR 104 WK (STUDY DURATION: 120 WK), Dose: 0, 1, 3% IN LIQUID DIET FOR 104 WK (STUDY DURATION: 120 WK)): inactive; negative

N[C@@H](CS)C(=O)O
carcinogen call (Species: RAT, Strain/Sex: F344/FEMALE, Route: ORAL, Dose: 0, 0.25, 0.5% IN DRINKING WATER FOR 108 WK (STUDY DURATION: 108 WK), Dose: 0, 0.25, 0.5% IN DRINKING WATER FOR 108 WK (STUDY DURATION: 108 WK)): inactive; negative | carcinogen call (Species: RAT, Strain/Sex: F344/MALE, Route: ORAL, Dose: 0, 0.25, 0.5% IN DRINKING WATER FOR 108 WK (STUDY DURATION: 108 WK), Dose: 0, 0.25, 0.5% IN DRINKING WATER FOR 108 WK (STUDY DURATION: 108 WK)): inactive; negative

ClC(Cl)(Cl)c1ccccc1
carcinogen call (Species: MOUSE, Strain/Sex: ICR/FEMALE, Route: GAVAGE, Dose: 0, 0.0315, 0.125, 0.5, 2 µL IN STERILIZED SESAME OIL 2/WK FOR 25 WK (STUDY DURATION: 18 MO), Dose: 0, 0.0315, 0.125, 0.5, 2 µL IN STERILIZED SESAME OIL 2/WK FOR 25 WK (STUDY DURATION: 18 MO), Tumor Site: Type of Lesion: FORESTOMACH: SQUAMOUS CELL CARCINOMA, LUNG: ADENOCARCINOMA OR ADENOMA, HEMATOPOIETIC SYSTEM: TUMORS, Tumor Site: Type of Lesion: FORESTOMACH: SQUAMOUS CELL CARCINOMA, LUNG: ADENOCARCINOMA OR ADENOMA, HEMATOPOIETIC SYSTEM: TUMORS): active; positive

From PubChem BioAssay AID1259411 (Chemical Carcinogenesis Research Information System (CCRIS), 2018)
